Key:
Type in all cases: physicochemical
[1] = Storage stability of Lubiprostone crystal V (crystalline form and degradation to impurity A); details: six months of storage at about −20° C.
[2] = Crystal form transformation of Lubiprostone crystal V stirred in isopropyl acetate/heptane, XRPD; details: stirred in isopropyl acetate (0.16 ml)/heptane (0.84 ml) at 20° C., within two hours
Description: X-ray Powder Diffraction (XRPD) Analysis: The XRPD patterns were collected on a Bruker D2 PHASER diffractometer with fixed divergence slits and 1D LYNXEYE detector. The samples (ca. 100 mg) were flatly placed on a sample holder. The prepared samples were analyzed over a 2θ range from 5° to 50° with step size of 0.02 degrees and step time of 1 second using CuKα radiation at a power of 10 mA and 30 kV. The CuKβ radiation was removed by a divergent beam nickel filter.
Lubiprostone crystal V (0.20 g, from Example 9) was added to a mixture of isopropyl acetate (0.16 ml) and heptane (0.84 ml)(i.e., the solvent system for crystallization of US 2010/056808), and the mixture was stirred at 20° C. for 2 hours. The resulting suspension was filtered and rinsed, and then dried under high vacuum at room temperature to give Lubiprostone crystal I. The XRPD results are shown in FIGS. 12(a) and 12(b).
Therefore, the Lubiprostone crystal V is a novel crystalline form of Lubiprostone, and the crystalline form shown in FIG. 2 found in the unit cell of Lubiprostone crystal II by optical microscope is an enantiomorph of Lubiprostone, rather than Lubiprostone crystal V.

[3] = Crystal form stability of Lubiprostone crystal V in the third solvent used for seeded crystallization

stability on storage (other crystalline forms, degraded products of impurity A) [1]: good stability | conversion of crystalline form to Lubiprostone crystal I (XRPD) [2]: completely converted | conversion of crystalline form to Lubiprostone crystal I ([3]; esters such as isopropyl acetate as third solvent): rapidly converted | stability of crystal form against conversion to Lubiprostone crystal I ([3]; o-xylene, m-xylene, ethyl ether, isopropyl ether or methyl tert-butyl ether as third solvent): very stable
SMILES: CCCCC(F)(F)[C@@]1(O)CC[C@H]2[C@@H](CC(=O)[C@@H]2CCCCCCC(=O)O)O1 [Lubiprostone crystal V, Lubiprostone]

From US10253011B1, “Lubiprostone crystals and methods for preparing the same” (CHIROGATE INTERNATIONAL INC., priority 2018, dated 2019)
